Data: patent publication US20210046085A1, “TREATMENT OF ADVANCED ESTROGEN RECEPTOR POSITIVE BREAST CANCER” (Pantarhei Oncology B.V., priority 2018, published 2021)
Like-named read-outs stand apart in the source and are kept apart here.

Key:
[1] = molecular target: T1, SHBG (Homo sapiens, UniProt P04278); details: cited from earlier work
T1 sequence (P04278 30-402): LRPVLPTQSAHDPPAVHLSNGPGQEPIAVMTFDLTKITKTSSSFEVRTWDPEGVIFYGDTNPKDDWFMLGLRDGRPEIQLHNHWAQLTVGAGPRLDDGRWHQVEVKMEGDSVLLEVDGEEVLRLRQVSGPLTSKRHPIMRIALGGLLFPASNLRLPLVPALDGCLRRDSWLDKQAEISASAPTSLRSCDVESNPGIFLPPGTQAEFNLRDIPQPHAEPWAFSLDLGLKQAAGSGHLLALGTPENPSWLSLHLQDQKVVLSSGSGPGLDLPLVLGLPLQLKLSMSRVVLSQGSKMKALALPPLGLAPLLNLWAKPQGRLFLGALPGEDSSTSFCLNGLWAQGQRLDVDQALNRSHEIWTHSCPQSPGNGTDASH

[2] = cited from earlier work
[3] = cited from earlier work; remark: listed apart in the source
[4] = test system: MCF-7 cells; details: and higher (288 pg/ml); cited from earlier work
[5] = test system: estrogen response element (ERE); details: breast cancer cells; cited from earlier work
[6] = test system: T-47D cells; details: and higher (288 pg/ml); cited from earlier work
[7] = Single dose pharmacokinetics study of oral estriol in postmenopausal women; type: in vivo, human; details: for concentration at 24 h / concentration at 48 h / concentration at 72 h: female, human, plasma, read-out: Average plasma level; for Average plasma level: 0-24 hours
Procedure: A single dose pharmacokinetics study was conducted to evaluate the pharmacokinetics of different oral dosages of estriol in postmenopausal women. In total 16 women were assigned to two different groups (Cohort A and Cohort B). Each Cohort received two estriol treatments. […] A wash-out period of 7 days was taken into account between the treatments.

[8] = single oral dose of 12 mg, postmenopausal women, cited from earlier work
[9] = test system: long term estrogen deprived MCF7 breast cancer cells (LTED cells); assay: Cell count in long term estrogen deprived MCF7 breast cancer cells (LTED cells); type: cell-based, human; details: for Cell number per well: cell count on Day 7
Procedure: LTED cells were plated in 6-well plates at a density of 30,000 cells per well. The cells were maintained in phenol red free IMEM with 5% charcoal stripped FBS (DCC-FBS). On Day 3, the medium was replaced with fresh phenol red free IMEM with 5% DCC-FBS. […] The final vehicle concentration was 0.1% ethanol for all experiments. Each treatment was done in duplicate.
On Day 5, the medium was changed and on Day 7 plates were subjected to a cell count analysis.

In the case of C[C@]12CC[C@@H]3c4ccc(O)cc4CC[C@H]3[C@@H]1CC[C@@H]2O [estradiol, 17beta-estradiol], the “Binding to SHBG” value ([1]; Hammond GL et al., Climacteric 2008) is given as “about 40%”.
For C[C@]12CC[C@@H]3c4ccc(O)cc4CC[C@H]3[C@@H]1C[C@@H](O)[C@@H]2O [estriol, estra-1,3,5(10)-triene-3,16α,17β-triol], the “Half-life after oral administration” value ([2]; Maturitas (1990), 12:171-197) is given as 9 to 10 h, the “Half-life after oral administration” value ([2]; Summary of Product Characteristics of Synapause) is given as 1.5 h and the “Conjugated in the intestine to glucuronides” value ([2]; oral administration) is given as 80-90%. The “Conjugated in the intestine to sulfates” value ([2]; oral administration) was 10-20%, the “Fraction that reaches the circulation” value ([2]; oral administration) was 1-2% and the Peak levels ([3]; oral administration of 6 mg estriol) was 80 to 220 pg/mL. The Peak levels ([3]; oral administration of 12 mg) was 150 to 490 pg/mL, the “Concentration exerting a mitogenic effect” value [4] was ≥ 10^−9 M and the “Concentration at which effects on ERE activation were visible” value [5] was 10^−10 M. The “Concentration exerting a mitogenic effect” value [6] was ≥ 10^−9 M, the concentration at 24 h ([7]; oral dose 5 mg) was 0.017 ± 0.011 ng/mL and the concentration at 48 h ([7]; oral dose 5 mg) was 0.011 ± 0.015 ng/mL. For the same compound, the concentration at 72 h ([7]; oral dose 5 mg) was 0.002 ± 0.006 ng/mL, the concentration at 24 h ([7]; oral dose 10 mg) was 0.047 ± 0.067 ng/mL and the concentration at 48 h ([7]; oral dose 10 mg) was 0.012 ± 0.015 ng/mL. The concentration at 72 h ([7]; oral dose 10 mg) was 0.001 ± 0.002 ng/mL, the concentration at 24 h ([7]; oral dose 20 mg) was 0.064 ± 0.041 ng/mL and the concentration at 48 h ([7]; oral dose 20 mg) was 0.03 ± 0.01 ng/mL. For the same compound, the concentration at 72 h ([7]; oral dose 20 mg) was 0.008 ± 0.012 ng/mL, the concentration at 24 h ([7]; oral dose 40 mg) was 0.121 ± 0.113 ng/mL and the concentration at 48 h ([7]; oral dose 40 mg) was 0.052 ± 0.014 ng/mL. The concentration at 72 h ([7]; oral dose 40 mg) was 0.013 ± 0.008 ng/mL, the Tolerability ([7]; high oral dose levels, postmenopausal women) was “well tolerated” and the “Plasma levels of estriol after 72 hours” value ([7]; oral administration of 20 mg or 40 mg estriol) was “still significant after 72 hours”. For the same compound, the “Plasma levels of estriol over 24 hours” value ([7]; oral administration of estriol 5-40 mg) was “remained fairly constant over 24 hours”, the Average plasma level ([7]; oral dose 5 mg) was 28 pg/mL and the Average plasma level ([7]; oral dose 10 mg) was 39 pg/mL. For the same compound, the Average plasma level ([7]; oral dose 20 mg) was 103 pg/mL, the Average plasma level ([7]; oral dose 40 mg) was 110 pg/mL and the “Plasma levels of estriol late after dosing” value ([7]; single oral dose 5-40 mg) was “still measurable up to 72 hrs post dosing”. For the same compound, the “Time of second increase after dosing (enterohepatic circulation)” value ([7]; single oral dose 5-40 mg) was 4 to 6 h, the “Time of peak levels after dosing” value ([7]; single oral dose 5-40 mg, approximately) was 1 to 2 h and the “Binding to SHBG” value [1] was “does not bind to SHBG”. For the same compound, the “Initial increase in estriol levels” value ([8]; conversion of pmol/L value) was 144 to 288 pg/mL, the “Initial increase in estriol levels” value ([8]; lasted about four hours) was 500 to 1000 pmol/L and the “Growth of LTED cells (result in words)” value [9] was “able to inhibit the growth of LTED cells”. The “Cell number per well” value ([9]; 10^−5 M estriol) was 0.11 ×10^6, the “Cell number per well” value ([9]; 10^−6 M estriol) was 0.18 ×10^6 and the “Cell number per well” value ([9]; 10^−7 M estriol) was 0.21 ×10^6. For the same compound, the “Cell number per well” value ([9]; 10^−8 M estriol) was 0.22 ×10^6, the “Cell number per well” value ([9]; 10^−9 M estriol) was 0.26 ×10^6 and the “Cell number per well” value ([9]; 10^−10 M estriol) was 0.56 ×10^6. For the same compound, the “Cell number per well” value ([9]; 10^−11 M estriol) was 0.92 ×10^6, the “Cell number per well” value ([9]; 10^−12 M estriol) was 1.17 ×10^6 and the “Concentration at which peak inhibition is observed” value ([9]; no significant further inhibition at higher concentrations) was 10^−9 M.
